What follows are compounds tested on recombinant NL4-3 virus (nef section replaced with Renilla luciferase gene, Gag P373S) (assay: HIV Cell Culture Assay). Conditions: NL43.
Type: cell-based
Protocol: MT-2 cells and 293T cells were obtained from the NIH AIDS Research and Reference Reagent Program. MT-2 cells were propagated in RPMI 1640 media supplemented with 10% heat inactivated fetal bovine serum, […]. The 293T cells were propagated in DMEM media supplemented with 10% heat inactivated fetal bovine serum (FBS), 100 units/ml penicillin G and 100 μg/ml streptomycin. The proviral DNA clone of NL4-3 was obtained from the NIH AIDS Research and Reference Reagent Program. A recombinant NL4-3 virus, in which a section of the nef gene from NL4-3 was replaced with the Renilla luciferase gene, was used as a reference virus. In addition, residue Gag P373 was converted to P373S. Briefly, the recombinant virus was prepared by transfection of the altered proviral clone of NL4-3. Transfections were performed in 293T cells using LipofectAMINE PLUS from Invitrogen (Carlsbad, Calif.), according to manufacturer's instruction. The virus was titered in MT-2 cells using luciferase enzyme activity as a marker. Luciferase was quantitated using the Dual Luciferase kit from Promega (Madison, Wis.), with modifications to the manufacturer's protocol. The diluted Passive Lysis solution was pre-mixed with the re-suspended Luciferase Assay Reagent and the re-suspended Stop & Glo Substrate (2:1:1 ratio). Fifty (50) μL of the mixture was added to each aspirated well on assay plates and luciferase activity was measured immediately on a Wallac TriLux (Perkin-Elmer). Antiviral activities of inhibitors toward the recombinant virus were quantified by measuring luciferase activity in cells infected for 4-5 days with NLRluc recombinants in the presence serial dilutions of the inhibitor. Note that some of the data is provided in abbreviated exponential form such that, for example, 2.53E−3, is equivalent to 2.53×10^−3.

Q: How did the EC50 turn out when `CC(C)[C@@H]1CC[C@]2(NC(=O)NCCN(C)C)CC[C@]3(C)[C@H](CC[C@@H]4[C@@]5(C)CC[C@@H](c6ccc(C(=O)O)cc6)C(C)(C)[C@@H]5CC[C@]43C)[C@@H]12` (single isomer, unassigned) [Example B5] was run?
A: 5.16 nM

Q: With `CC(C)[C@@H]1CC[C@]2(NC(=O)OCCN(C)C)CC[C@]3(C)[C@H](CC[C@@H]4[C@@]5(C)CC[C@@H](c6ccc(C(=O)O)cc6)C(C)(C)[C@@H]5CC[C@]43C)[C@@H]12` (single isomer, unassigned) [Example B7] as the compound, how does the EC50 read?
A: 6.45 nM

Q: With `CC(C)[C@@H]1CC[C@]2(C(=O)NCCN(C)C)CC[C@]3(C)[C@H](CC[C@@H]4[C@@]5(C)CC[C@@H](c6ccc(C(=O)O)cc6)C(C)(C)[C@@H]5CC[C@]43C)[C@@H]12` [Example B2, 4-((1S,3aS,5aR,5bR,7aS,9R,11aS,11bR,13aR,13bR)-3a-((2-(dimethylamino)ethyl)carbamoyl)-1-isopropyl-5a,5b,8,8,11a-pentamethylicosahydro-1H-cyclopenta[a]chrysen-9-yl)benzoic acid] as the compound, how does the EC50 read?
A: 2.53 nM

Q: For `CC(C)[C@@H]1CC[C@]2(NC(=O)CCCN(C)C)CC[C@]3(C)[C@H](CC[C@@H]4[C@@]5(C)CC[C@@H](c6ccc(C(=O)O)cc6)C(C)(C)[C@@H]5CC[C@]43C)[C@@H]12` (single isomer, unassigned) [Example B11], which EC50 is on record?
A: 5.94 nM

Q: Which EC50 does the source give for `CC(C)[C@@H]1CC[C@]2(C(=O)NCCCN(C)C)CC[C@]3(C)[C@H](CC[C@@H]4[C@@]5(C)CC[C@@H](c6ccc(C(=O)O)cc6)C(C)(C)[C@@H]5CC[C@]43C)[C@@H]12` [Example B3, 4-((1S,3aS,5aR,5bR,7aS,9R,11aS,11bR,13aR,13bR)-3a-((3-(dimethylamino)propyl)carbamoyl)-1-isopropyl-5a,5b,8,8,11a-pentamethylicosahydro-1H-cyclopenta[a]chrysen-9-yl)benzoic acid] here?
A: 2.33 nM

Q: Which EC50 does the source give for `CC(C)[C@@H]1CC[C@]2(NC(=O)OCCCN(C)C)CC[C@]3(C)[C@H](CC[C@@H]4[C@@]5(C)CC[C@@H](c6ccc(C(=O)O)cc6)C(C)(C)[C@@H]5CC[C@]43C)[C@@H]12` (single isomer, unassigned) [Example B8] here?
A: 4.49 nM

Q: For `CC(C)[C@@H]1CC[C@]2(NCCN3CCC(S(C)(=O)=O)CC3)CC[C@]3(C)[C@H](CC[C@@H]4[C@@]5(C)CC[C@@H](c6ccc(C(=O)O)cc6)C(C)(C)[C@@H]5CC[C@]43C)[C@@H]12` [Example B13, 4-((1S,3aS,5aR,5bR,7aS,9R,11aS,11bR,13aR,13bR)-1-isopropyl-5a,5b,8,8,11a-pentamethyl-3a-((2-(4-(methylsulfonyl)piperidin-1-yl)ethyl)amino)icosahydro-1H-cyclopenta[a]chrysen-9-yl)benzoic acid], which EC50 is on record?
A: 1.58 nM

Q: For `CC(C)[C@@H]1CC[C@]2(NCCN3C[C@@H]4C[C@H]3CS4(=O)=O)CC[C@]3(C)[C@H](CC[C@@H]4[C@@]5(C)CC[C@@H](c6ccc(C(=O)O)cc6)C(C)(C)[C@@H]5CC[C@]43C)[C@@H]12` (single isomer, unassigned) [Example B12], which EC50 is on record?
A: 0.605 nM

Q: `CC(C)[C@@H]1CC[C@]2(C(=O)O)CC[C@]3(C)[C@H](CC[C@@H]4[C@@]5(C)CC[C@@H](c6ccc(C(=O)O)cc6)C(C)(C)[C@@H]5CC[C@]43C)[C@@H]12` [Example B1, (1S,3aS,5aR,5bR,7aS,9R,11aS,11bR,13aR,13bR)-9-(4-carboxyphenyl)-1-isopropyl-5a,5b,8,8,8,11a-pentamethylicosahydro-1H-cyclopenta[a]chrysene-3a-carboxylic acid] was tested. Which EC50 did it give?
A: 10 nM

Q: With `CC(C)[C@@H]1CC[C@]2(N)CC[C@]3(C)[C@H](CC[C@@H]4[C@@]5(C)CC[C@@H](c6ccc(C(=O)O)cc6)C(C)(C)[C@@H]5CC[C@]43C)[C@@H]12` [Example B4, 4-((1S,3aS,5aR,5bR,7aS,9R,11aS,11bR,13aR,13bR)-3a-amino-1-isopropyl-5a,5b,8,8,11a-pentamethylicosahydro-1H-cyclopenta[a]chrysen-9-yl)benzoic acid] as the compound, how does the EC50 read?
A: 4.53 nM

Q: For `CC(C)[C@@H]1CC[C@]2(NC(=O)CCN(C)C)CC[C@]3(C)[C@H](CC[C@@H]4[C@@]5(C)CC[C@@H](c6ccc(C(=O)O)cc6)C(C)(C)[C@@H]5CC[C@]43C)[C@@H]12` (single isomer, unassigned) [Example B10], which EC50 is on record?
A: 3.81 nM

Q: For `CC(C)[C@@H]1CC[C@]2(NC(=O)CN(C)C)CC[C@]3(C)[C@H](CC[C@@H]4[C@@]5(C)CC[C@@H](c6ccc(C(=O)O)cc6)C(C)(C)[C@@H]5CC[C@]43C)[C@@H]12` (single isomer, unassigned) [Example B9], which EC50 is on record?
A: 10 nM

Q: Which EC50 does the source give for `CC(C)[C@@H]1CC[C@]2(NC(=O)NCCCN(C)C)CC[C@]3(C)[C@H](CC[C@@H]4[C@@]5(C)CC[C@@H](c6ccc(C(=O)O)cc6)C(C)(C)[C@@H]5CC[C@]43C)[C@@H]12` (single isomer, unassigned) [Example B6] here?
A: 5.13 nM

— US20190135857A1, “TR[…] HUMAN IMMUNODEFICIENCY VIRUS REPLICATION” (priority 2016, published 2019)
